The values that follow come from patent US9492423B2, “Formulations of histone deacetylase inhibitor in combination with bendamustine and uses thereof” (PHARMACYCLICS LLC, priority 2011, dated 2016).

One series relates to H929 (Multiple Myeloma). Briefly: Tumor growth inhibition study, H929 bearing female SCID mice. Type of series: in vivo. Conditions: PCI-24781 12 mg/kg BID IP 5 d/wk; bendamustine 5.0 mg/kg qd IP 2 d/wk; FIG. 7. The procedure: Mice inoculated subcutaneously in the right hind flank with H929 MM cells at a density of 1×10^7 cells in a volume of 100 μL/mouse 4 groups of animals (n=8/group) received vehicle (BID, IP, 5 d/wk), PCI-24781 alone (12 mg/kg BID, IP, 5 d/wk), bendamustine alone 5.0 mg/kg (qd, IP, 2 d/wk Tu, Th) or the combination. Body weights and tumor measurements were collected a minimum of 2 times each week for all animals. Blood and tumor samples were collected at study termination for pharmacodynamic evaluations.

Series [1] has as its system Neuroblastoma cell lines and patient-derived primary neuroblastoma cultures. Briefly: Neuroblastoma cell viability, calcein AM assay. Conditions: 48 hours, viability by calcein AM. Format: cell-based. The procedure:
Neuroblastoma cell lines and patient-derived primary neuroblastoma cultures were treated with bortezomib, Compound 1 alone or a combination of both agents for 48 hours. Cells were also treated with HDAC inhibitors vorinostat, sodium butyrate, and valproic acid and viability was assessed by calcein AM assays. mRNA from treated cells was evaluated at 6 and 24 hours using U133+ mRNA expression arrays and Ingenuity analysis. Dichlorofluorescein (DCF) was used to measure reactive oxygen species (ROS). Cell viability assays were repeated in the presence of N-acetylcysteine (NAC). Western blot evaluated caspase-3 and PARP cleavage. Nude mice were injected with 10^7 SMS-KCNR cells subcutaneously and treated with daily doses of 0.5 mg/kg bortezomib, 12.5 mg/kg Compound 1, or a combination of the two agents. Tumors were measured and imaged twice per week.

Series [2] can be described thus: Phase 1 trial of oral capsule Compound 1, HCl: safety, tolerability, pharmacodynamics. Type of series: in vivo. The source says: (§1) This is a Phase 1 dose-escalation study of the safety, pharmacokinetics, and pharmacodynamics of Compound 1, HCl administered orally in patients with advanced cancer.
This study seeks to determine the highest dose of Compound 1, HCl that can be taken without causing serious side effects in patients with advanced cancer. The study will look at safety of the study drug (Compound 1, HCl) and whether the treatment schedule is tolerated by patients.
(§2) In the Phase 1 dose escalation study, up to 7 cohorts will receive Compound 1, HCl orally at doses starting at 30 mg/m^2, approximately 4-6 hours apart, up to 90 mg/m^2, 2 or 3 times a day according to 3 different dosing schedules within 28 day cycle (5 days of dosing followed by 2 days of no dosing; 5 days of dosing followed by 9 days of no dosing; 7 days of dosing followed by 7 days of no dosing) until the maximum tolerated dose is reached.
Patients should satisfy the following criteria: At least 18 years of age; histologically confirmed, measurable solid tumor, non-Hodgkin's lymphoma, Hodgkin's disease, chronic lymphocytic leukemia, or multiple myeloma that has relapsed after standard therapy or for which no standard therapy exists; ability to swallow oral capsules without difficulty; estimated life expectancy>12 weeks; ECOG performance status≦2; Creatinine≦1.5×institutional upper limit of normal (ULN); Total bilirubin≦1.5×institutional ULN (unless elevated from documented Gilbert's syndrome); AST and ALT≦2.5×institutional ULN (≦5×institutional ULN in the presence of liver metastases); Platelet count≧100,000/μL; ANC≧1500/μL; Hgb≧9.0 g/dL; Patients with previously treated, stable, asymptomatic brain metastases who are not on corticosteroids are eligible; Willing and able to sign a written informed consent.

Series [3] has as its system Jurkat (leukemia) and HCT-116 (colon tumor). Briefly: In vitro dose scheduling studies, apoptosis by FACS (annexinV-FITC/PI). Format: cell-based, human. The procedure:
Pharmacokinetic data (pk) data from human patients was used to model various dose regimens using human cell lines: Jurkat (leukemia) and HCT-116 (colon tumor). The human cell lines were treated with or without a HDAC inhibitor (e.g. Compound 1). Cells were cultured, treated according to different regimens and concentrations to model the corresponding dosing regimen (continuous low dose: 0.2 μM; intravenous (IV): 2 μM 3 hours+0.3 μM 4 hours; oral BID: 0.4 μM 4 hours×2, 4 hours apart; oral consecutive BID: 0.4 μM 8 hours; oral consecutive TID: 0.266 μM 12 hours), then washed out to mimic the human in vivo PK.
Cell viability was examined by an analysis of apoptosis using fluorescence activated cell sorting (FACS) after staining with annexinV-FITC and propidium iodide (PI). In brief, after treatment, 1×10^6 cells were washed with phosphate buffered saline (PBS) and then labeled with annexinV-FITC/PI in the binding buffer according to manufacturer's protocol. Fluorescent signals of FITC and PI were detected at 518 nm and 620 nm, respectively, on a Beckman Coulter FACS instrument (Fullerton, Calif.). The data were analyzed with Flow Jo software (Tree Star, Ashland, Oreg.).
On the technique in general: A flow cytometer gives signals particle by particle.

Series [4] deals with RAD51. The experiment in a line: Jurkat cells, pretreatment and bendamustine-induced RAD51 upregulation. Type of series: cell-based, human. The note with it: Jurkat cells pre-treated one day with 0.2 uM Compound 1, then 20 uM bendamustine for 1 day, FIG. 9. The procedure:
Cells were pre-treated one day is advance with 0.2 uM HDAC inhibitor (i.e., Compound 1), then 20 uM bendamustine was added for 1 day.

For series [5], the system named is RAD51. Briefly: Western blot of DNA repair proteins in multiple myeloma cell lines. Format: cell-based. The note with it: FIG. 6A. An excerpt:
RAD51 represents an essential component of homologous recombination (HR), one of the two major DNA double-strand break (DSB) repair pathways in cells; the second pathway, non-homologous end joining (NHEJ), represented here by two of its components Ku-70 and DNA-PKcs, is not affected by these treatments. […] As explained supra, the synergistic anti-multiple myeloma activity of the bendamustine-Compound 1 combination could be due to a reduction in RAD51 levels caused by the HDAC inhibitor (i.e., Compound 1).
A general note: In western blotting, separated proteins are transferred to a membrane and probed.

Series [6] in a line: Clinical PK of Compound 1 in solution form, single oral dose and 2-hour IV infusion doses. Conditions: human, in vivo, humans. The procedure: In clinical trials involving humans with cancer, Compound 1 in solution form was administered at 2 mg/kg as a single oral dose and as multiple 2-hour IV infusion doses.
A short description of series [7]: Phase 1 trial of oral capsule Compound 1, HCl: plasma pharmacokinetics. Format: in vivo. Conditions: human, 30 mg/m^2 dose of capsule formulation of Example 2, solid tumor cancer patients, mean±SE, read-out: AUC0-4h for plasma concentrations. The procedure:
as §1, §2
The following pharmacokinetic information was determined for patients that received a […] dose of the capsule formulation of Example 2. Solid tumor cancer patients received a […] dose of the capsule formulation of Example 2. Blood samples that were collected for up to 24 hours post-dosing were analyzed for pharmacokinetic evaluations. Plasma was harvested by centrifugation and stored at approximately −70° C. until analysis. Concentrations of Compound 1 were determined in plasma using HPLC gradient system (Hewlett Packard model 1100) was configured with Sciex API 3000 and a reversed phase column (Phenomenex, Luna C18, 3.0 μm, 50×2 mm i.d.). The mobile phase gradient consisted of 0.2% formic acid in water (A) and 0.2% formic acid in methanol (B). […]

A value given as a limit tells only on which side of the number the result lay.

`Cn1c(CCCC(=O)O)nc2cc(N(CCCl)CCCl)ccc21` [bendamustine]: in the series on H929 (Multiple Myeloma), the tumor growth inhibition stood at 79%.
As to `CC(C)C[C@H](NC(=O)[C@H](Cc1ccccc1)NC(=O)c1cnccn1)B(O)O` [bortezomib, reference compound], the IC50 in series [1] is < 50 nM.
For `CN(C)Cc1c(C(=O)NCCOc2ccc(C(=O)NO)cc2)oc2ccccc12` [Compound 1, N-hydroxy-4-{2-[3-(N,N-dimethylaminomethyl)benzofuran-2-ylcarbonylamino]ethoxy}-benzamide], the “average grade of thrombocytopenia, TID versus BID consecutive dosing” value in series [2] (daily exposure range of 0.63 to 2.15 μM·h) is reported as “higher average grade of thrombocytopenia”. For the same compound, in series [2] (immediate release capsule, 2 or 3 consecutive doses 4 to 6 hours apart on days of dosing), the therapeutic effect result is “therapeutic effect of Compound 1 was achieved”. In addition, the “incidence of Grade 4 thrombocytopenia (platelet count <25,000 per mm^2)” value in series [2] (solid tumor and lymphoma patients, cycles of 7 days oral dosing followed by 7 days without dosing) is “limited incidence of Grade 4 thrombocytopenia”. The “efficacy of modelled oral tid dosing versus bid dosing” value in series [3] (0.266 μM 12 hours versus 0.4 μM 8 hours) is “better”. In addition, the “efficacy of modelled oral bid dosing given consecutively (4 hours apart) versus with a break in between” value in series [3] (0.4 μM 8 hours versus 0.4 μM 4 hours×2) was “more efficacious”. In addition, in series [3] (continuous exposure for at least 8 hours), the “efficacy (tumor cell death) of modelled dose schedule” value is reported as “good efficacy”. In addition, the “bendamustine-induced RAD51 upregulation” value in the series on RAD51 [4] was “suppressed bendamustine-induced RAD51 upregulation”. Further, in the series on RAD51 [5], the “NHEJ components Ku-70 and DNA-PKcs” value is “not affected”; the RAD51 expression entry is on record as “downregulation of RAD51”. In addition, the half-inhibitory concentration (IC50) in series [1] was < 200 nM. Moreover, the tumor growth inhibition in the series with H929 (Multiple Myeloma) is given as 73%. The bioavailability in series [6] (2 mg/kg, administered as immediate release capsules or an oral solution) is ~27%. Also, the bioavailability in series [6] (2 mg/kg solution, from oral and IV AUC0-∞) is ~27%. Moreover, the AUC(0-t) in series [7] came out at 0.272 ± 0.051 µM·h.

By IC50 is commonly meant the concentration needed to halve the response being measured. As a reminder, the bioavailability is the share of a dose that reaches the circulation, judged against a reference dose that is usually intravenous. A higher bioavailability goes with good availability.
